The values that follow come from US12295959B2 (priority 2021, dated 2025).

One experiment has as its system rat cortical neurons. The experiment is described as follows: Neurite outgrowth assay. The class given is cell-based. Set-up: key: A: Statistically significant mean increase as a percent of DMSO control at 10 μM or less.; B: No statistically significant mean increase as a percent of DMSO control at 10 μM or less. To be noted: 72 h, 10 μM or less, vs DMSO control. An excerpt:
Neurite Outgrowth Assay. Changes in the pattern of neurite outgrowth have been implicated in psychiatric and neurodegenerative disorders as well as traumatic injuries. The discovery of new compounds that can positively affect neuritogenesis are important for developing new therapeutics for neurological diseases. Measurement of neurite outgrowth of rat cortical neurons using an automated image-based assay was used to determine the neuroplastic effects of the compounds of the present invention. The neurite outgrowth assay was performed at Neurofit SAS (France) as described below.
Pregnant Wistar rats (Janvier; France) were used for the study. They were delivered 6 days before their use. Upon arrival at Neurofit animal facility, they were housed one per cage and maintained in a room with controlled temperature (21-22° C.) and a reversed light-dark cycle (12 h/12 h; lights on: 17:30-05:30; lights off: 05:30-17:30) with food and water available ad libitum.
Female Wistar rats of 17 days gestation were killed by cervical dislocation and the fetuses were removed from the uterus. Their brains were placed in ice-cold medium of Leibovitz (L15, Gibco, Fisher bioblock, France). Cortices were dissected and meninges were carefully removed. The cortical neurons were dissociated by trypsinization for 30 min at 37° C. (trypsin-EDTA, Gibco) in presence of 0.1 mg/ml DNAse I (Roche, France). The reaction was stopped by addition of Dulbecco's Modified Eagle Medium (DMEM; Gibco) with 10% of fetal bovine serum (FBS; Gibco). The suspension was triturated with a 10-ml pipette and using a needle syringe 21G and centrifuged at 350×g for 10 min at room temperature. The pellet of dissociated cells was resuspended in a medium consisting of Neurobasal (Gibco) supplemented with 2% B27 supplement (Gibco), 0.5 mM L-Glutamine (Gibco), an antibiotic-antimicotic mixture. Viable cells were counted in a Neubauer cytometer using the trypan blue exclusion test (Sigma). Cells were seeded at a density of 10000 cells per well in 96-well plate (Costar) precoated with poly-L-lysine. Test compound at different concentrations were added to the cultures. Donepezil (positive control) was tested at 250 nM.
After 72 h (3 days) of plating, cultures were fixed with paraformaldehyde in PBS (4%, Sigma) for 30 min at 4° C. Then, cells were successively permeabilized with 0.1% Triton X100 for 30 min, saturated with PBS containing 3% of BSA and were incubated 1 h with anti-beta III tubulin antibody (Sigma) at 1/10 000 in PBS containing 0.5% of BSA. Cells were washed three times with PBS containing 0.5% of BSA, and they were incubated 1 h with goat anti-mouse antibody coupled with AF488 (Invitrogen A 11001) diluted at 1/1000 in PBS containing 0.5% of BSA. Finally, nuclei were staining with DAPI 1 mg/ml at 1/1000 in PBS containing 0.5% of BSA. After rinsing with PBS, the plate was filmed and neurite networks were examined and analyzed using High-Content Screening (CellInsight, Thermo Scientific). The average number of neurites per neuron and the average total length of neurites per neuron were the main parameters analyzed. Analysis of data was performed using analysis of variance (ANOVA). The Fisher's Protected Least Significant Difference test was used for multiple comparisons. A p value≤0.05 was considered significant. The software used is StatView 5.0 from SAS Institut.

Experiment [1] addresses T1, 5-HT2A (Homo sapiens, UniProt P28223). As to the kind of experiment: Serotonin 5-HT2A in vitro cellular IPOne agonism assay (HTRF). Also on record: host or cells: CHO-K1. The class given is cell-based. To be noted: CHO-K1 cells, agonist mode. As for the experimental part:
Serotonin 5-HT2A In Vitro Cellular IPOne Agonism Assay. The 5-HT2A IPOne HTRF assay was performed at Epics Therapeutics S.A. (Belgium, FAST-0505I) using conventional methods. Briefly, CHO-K1 cells expressing human recombinant 5-HT2A receptor grown to mid-log phase in culture media without antibiotics were detached with PBS-EDTA, centrifuged, and resuspended in medium without antibiotics buffer. 20,000 cells were distributed in a 96 well plate and incubated overnight at 37° C. with 5% CO2.
For agonist testing, the medium was removed and 20 μl of assay buffer plus 20 μl of test compound or reference agonist are added in each well. The plate was incubated for 60 min. at 37° C. with 5% CO2.
(§1) After addition of the lysis buffer containing IP1-d2 and anti-IP1 cryptate detection reagents, plates were incubated 1-hour at room temperature, and fluorescence ratios were measured according to the manufacturer specification, with the HTRF kit.

In experiment [2] the target is T1, 5-HT2A. As to the kind of experiment: Serotonin 5-HT2A in vitro cellular IPOne antagonism assay. It counts as cell-based. As to conditions: CHO-K1 cells, antagonist mode, reference agonist a-Me-5HT. Also on record: host or cells: CHO-K1. As for the experimental part:
Serotonin 5-HT2A and 5-HT2C In Vitro Cellular IPOne Antagonism Assay. The 5-HT2A IPOne HTRF assay was performed at Epics Therapeutics S.A. (Belgium, FAST-0505I) in antagonism mode using conventional methods. Briefly, CHO-K1 cells expressing human recombinant 5-HT2A receptor grown to mid-log phase in culture media without antibiotics were detached with PBS-EDTA, centrifuged, and resuspended in medium without antibiotics buffer. 20,000 cells were distributed in a 96 well plate and incubated overnight at 37° C. with 5% CO2.
For antagonist testing, a reference agonist a-Me-5HT was added and fluorescence signal monitored for several minutes, followed by addition of 20 μl of assay buffer plus 20 μl of test compound or reference antagonist ketanserin, in each well. The plate was incubated for 60 min. at 37° C. with 5% CO2.
as §1

The target of experiment [3] is T1, 5-HT2A. As to the kind of experiment: Serotonin 5-HT2A in vitro radioligand binding competition assay ([3H]-DOI). Set-up: purchased Epics Therapeutics S.A. (Belgium) FAST-0505B; host or cells: membrane extracts. To be noted: [3H]-DOI competition, membrane extracts. As for the experimental part: Serotonin 5-HT2A In Vitro Radioligand Binding Competition Assay. The 5-HT2A radioligand binding competition assay was performed at Epics Therapeutics S.A. (Belgium, FAST-0505B) using conventional methods. Briefly, competition binding was performed in duplicate in the wells of a 96 well plate (Master Block, Greiner, 786201) containing binding buffer (optimized for each receptor), membrane extracts (amount of protein/well optimized for each receptor), radiotracer [^3H]-DOI (final concentration optimized for each receptor) and test compound. Nonspecific binding was determined by co-incubation with 200-fold excess of cold competitor. The samples were incubated in a final volume of 0.1 ml at a temperature and for a duration optimized for each receptor and then filtered over filter plates. Filters were washed six times with 0.5 ml of ice-cold washing buffer (optimized for each receptor) and 50 μl of Microscint 20 (Packard) was added in each well. The plates were incubated 15 min on an orbital shaker and then counted with a TopCount™ for 1 min/well.

Each structure is given as a SMILES string.

T1 sequence (P28223 whole entry): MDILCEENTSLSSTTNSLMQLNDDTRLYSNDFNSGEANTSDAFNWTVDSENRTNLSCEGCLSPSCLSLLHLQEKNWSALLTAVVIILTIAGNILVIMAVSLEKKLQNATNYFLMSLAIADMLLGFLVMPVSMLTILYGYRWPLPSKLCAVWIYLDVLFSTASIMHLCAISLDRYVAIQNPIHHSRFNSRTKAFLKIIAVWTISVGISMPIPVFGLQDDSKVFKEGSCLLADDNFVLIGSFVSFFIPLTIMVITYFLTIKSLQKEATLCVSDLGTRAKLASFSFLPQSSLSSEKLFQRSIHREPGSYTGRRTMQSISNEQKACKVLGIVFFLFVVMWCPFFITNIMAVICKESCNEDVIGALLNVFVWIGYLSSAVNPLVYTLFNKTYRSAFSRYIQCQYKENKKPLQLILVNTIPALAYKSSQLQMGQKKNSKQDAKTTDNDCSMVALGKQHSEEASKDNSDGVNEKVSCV

With `CN1CCc2[nH]c3cc(OCc4ccccc4)ccc3c2CC1` [Compound 1, 8-(benzyloxy)-3-methyl-1,2,3,4,5,6-hexahydroazepino[4,5-b]indole], in the experiment on rat cortical neurons, the “Increase in Neurite Branching” value is “B”, the “Increase in Neurite Length” value is “A” and the “Increase in Neurite Number” value is on record as “A”. In addition, the EC50 at 5-HT2A [1] was > 10000 nM. In addition, the IC50 at 5-HT2A [2] was 101 to 1000 nM. Besides, the IC50 on 5-HT2A [3] is 101 to 1000 nM.

As for `CN1CCc2[nH]c3cccc(OCc4ccccc4)c3c2CC1` [Compound 2, 10-(benzyloxy)-3-methyl-1,2,3,4,5,6-hexahydroazepino[4,5-b]indole], in the experiment on rat cortical neurons, the “Increase in Neurite Branching” value is recorded as “B”, the “Increase in Neurite Length” value is recorded as “A” and the “Increase in Neurite Number” value was “A”. On 5-HT2A [1], the EC50 was > 10000 nM. This molecule displayed an IC50 on 5-HT2A [2] of 10 to 100 nM. Besides, the IC50 at 5-HT2A [3] was < 10 nM.

With `c1ccc(COc2ccc3c4c([nH]c3c2)CCNCC4)cc1` [Compound 3, 8-(benzyloxy)-1,2,3,4,5,6-hexahydroazepino[4,5-b]indole], in the experiment on rat cortical neurons, the “Increase in Neurite Branching” value is reported as “A”, the “Increase in Neurite Length” value is given as “A” and the “Increase in Neurite Number” value was “A”. The molecule also registered an EC50 at 5-HT2A [1] of 101 to 1000 nM. For the same molecule, the IC50 on 5-HT2A [3] fell in the range of 101 to 1000 nM.

Regarding `c1ccc(COc2cccc3[nH]c4c(c23)CCNCC4)cc1` [Compound 4, 10-(benzyloxy)-1,2,3,4,5,6-hexahydroazepino[4,5-b]indole], in the experiment with rat cortical neurons, the “Increase in Neurite Length” value is listed as “B” and the “Increase in Neurite Number” value is on record as “B”. On 5-HT2A [1], the EC50 was < 10 nM. Further, the IC50 at 5-HT2A [3] lay in the range of 10 to 100 nM.

For `Cn1c2c(c3ccc(OCc4ccccc4)cc31)CCNCC2` [Compound 5, 8-(benzyloxy)-6-methyl-1,2,3,4,5,6-hexahydroazepino[4,5-b]indole], in the experiment on rat cortical neurons, the “Increase in Neurite Branching” value is listed as “B”, the “Increase in Neurite Length” value is on record as “B” and the “Increase in Neurite Number” value is given as “B”. In addition, the EC50 at 5-HT2A [1] is > 10000 nM. The molecule further registered an IC50 at 5-HT2A [2] of 101 to 1000 nM. For the same molecule, the IC50 at 5-HT2A [3] is 101 to 1000 nM.

Consider `CN1CCc2c(n(C)c3cc(OCc4ccccc4)ccc23)CC1` [Compound 6, 8-(benzyloxy)-3,6-dimethyl-1,2,3,4,5,6-hexahydroazepino[4,5-b]indole], for which, in the experiment with rat cortical neurons, the “Increase in Neurite Branching” value is reported as “B”, the “Increase in Neurite Length” value is “B” and the “Increase in Neurite Number” value is “B”. In addition, at 5-HT2A [1], the EC50 was > 10000 nM. On 5-HT2A [2], this molecule displayed an IC50 of 101 to 1000 nM. The molecule further displayed an IC50 at 5-HT2A [3] of 101 to 1000 nM.

In the case of `Fc1ccc(COc2ccc3c4c([nH]c3c2)CCNCC4)cc1` [Compound 7, 8-((4-fluorobenzyl)oxy)~1,2,3,4,5,6-hexahydroazepino[4,5-b]indole], in the experiment with rat cortical neurons, the “Increase in Neurite Branching” value is on record as “B”, the “Increase in Neurite Length” value is listed as “B” and the “Increase in Neurite Number” value is “B”. The molecule also gave an EC50 on 5-HT2A [1] of 101 to 1000 nM. At 5-HT2A [2], this molecule gave an IC50 of 101 to 1000 nM. Moreover, the IC50 at 5-HT2A [3] was in the range of 101 to 1000 nM.

As to `c1ccc(Oc2ccc3c4c([nH]c3c2)CCNCC4)cc1` [Compound 11, 8-phenoxy-1,2,3,4,5,6-hexahydroazepino[4,5-b]indole], the EC50 on 5-HT2A [1] lay within 1000 to 10000 nM. Also, the IC50 fell in the range of 101 to 1000 nM on 5-HT2A [2] and 1000 to 10000 nM at 5-HT2A [3].

The molecule `Cn1c2c(c3ccc(Oc4ccccc4)cc31)CCNCC2` [Compound 13, 6-methyl-8-phenoxy-1,2,3,4,5,6-hexahydroazepino[4,5-b]indole] registered an EC50 at 5-HT2A [1] of 101 to 1000 nM. Moreover, at 5-HT2A [3], the IC50 lay in the range of 1000 to 10000 nM.

As to `Fc1ccc(Oc2ccc3c4c([nH]c3c2)CCNCC4)cc1` [Compound 15, 8-(4-fluorophenoxy)-1,2,3,4,5,6-hexahydroazepino[4,5-b]indole], in the experiment with rat cortical neurons, the “Increase in Neurite Branching” value is listed as “A”, the “Increase in Neurite Length” value was “A” and the “Increase in Neurite Number” value is listed as “A”. This molecule showed an EC50 at 5-HT2A [1] of 101 to 1000 nM. This molecule showed an IC50 at 5-HT2A [3] of 101 to 1000 nM.

For `Cn1c2c(c3ccc(Oc4ccc(F)cc4)cc31)CCNCC2` [Compound 17, 8-(4-fluorophenoxy)-6-methyl-1,2,3,4,5,6-hexahydroazepino[4,5-b]indole], the EC50 on 5-HT2A [1] lay in the range of 101 to 1000 nM. The same molecule gave an IC50 at 5-HT2A [3] of 101 to 1000 nM.

For the molecule `c1ccc(Oc2cccc3[nH]c4c(c23)CCNCC4)cc1` [Compound 20, 10-phenoxy-1,2,3,4,5,6-hexahydroazepino[4,5-b]indole], the “Increase in Neurite Length” value with rat cortical neurons is on record as “B”. The concentration for a half-maximal effect (EC50) at 5-HT2A [1] was 10 to 100 nM. At 5-HT2A [3], this molecule gave an IC50 of 10 to 100 nM.

Take `Fc1ccc(Oc2cccc3[nH]c4c(c23)CCNCC4)cc1` [Compound 21, 10-(4-fluorophenoxy)-1,2,3,4,5,6-hexahydroazepino[4,5-b]indole]: in the experiment with rat cortical neurons, the “Increase in Neurite Branching” value was “B”, the “Increase in Neurite Length” value was “B” and the “Increase in Neurite Number” value is given as “B”. For the same molecule, the EC50 at 5-HT2A [1] lay in the range of 10 to 100 nM. At 5-HT2A [3], this molecule had an IC50 of 10 to 100 nM.

In the case of `Cn1c2c(c3c(Oc4ccc(F)cc4)cccc31)CCNCC2` [Compound 23, 10-(4-fluorophenoxy)-6-methyl-1,2,3,4,5,6-hexahydroazepino[4,5-b]indole], the EC50 at 5-HT2A [1] is 101 to 1000 nM. On 5-HT2A [3], this molecule came in with an IC50 of 10 to 100 nM.

`c1ccc(COc2cccc3c4c([nH]c23)CCNCC4)cc1` [Compound 27, 7-(benzyloxy)-1,2,3,4,5,6-hexahydroazepino[4,5-b]indole]: in the experiment with rat cortical neurons, the “Increase in Neurite Length” value was “A”. On 5-HT2A [1], the EC50 fell in the range of 101 to 1000 nM. For the same molecule, the IC50 on 5-HT2A [3] was in the range of 101 to 1000 nM.
